Laboratory results as given in patent publication US9242984B2, “Pyrazolyl derivatives as Syk inhibitors” (Merck Sharp & Dohme Corp., priority 2012, dated 2016).

Biological target: T1, recombinant human Syk (GST-hSyk fusion protein) (Homo sapiens, UniProt P43405)
T1 construct: purchased Carna Biosciences 08-176
Assay: Homogeneous Time-Resolved Fluorescence (HTRF) assay for the recombinant human Syk enzyme
Assay type: biochemical
Details: IC50 class; 10-dose titration, 25 μM ATP; read-out: rhSYK Activity
Method in brief: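 IC50 came from a four-parameter fit over ten doses, 10 μM to 0.508 nM, with HTRF read-out (Eu-anti-pTyr antibody, SA-APC, EDTA stop, 30 min). The enzyme, 5 pM GST-hSyk, met compound for 10 min, then phosphorylated 250 nM biotin-peptide with 25 μM ATP and 5 mM Mg for 45 min at room temperature, pH 7.5.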

With Cc1cc(Nc2nccc(C(F)(F)F)n2)cc(-c2cnn(CC(C)(O)C(N)=O)c2)c1 (single isomer, unassigned) [Example 8.3, 2-hydroxy-2-methyl-3-[4-(3-methyl-5-{[4-(trifluorometh-yl)pyrimidin-2-yl]amino}phenyl)-1H-pyrazol-1-yl]propanamide] the IC50 was ≤ 100 nM.

With Cc1cc(Nc2nccc(C(F)(F)F)n2)cc(-c2cnn(CC3OC(=O)NC3C(C)C)c2)c1 (single isomer, unassigned) [Example 23.3, 4-(1-methylethyl)-5-{[4-(3-methyl-5-{[4-(trifluoromethyl)pyrimidin-2-yl]amino}phenyl)-1H-pyrazol-1-yl]methyl}-1,3-oxazolidin-2-one] the IC50 was ≤ 100 nM.

CCOC(=O)C(C)n1cc(-c2cc(C)cc(Nc3nccc(C(F)(F)F)n3)c2)cn1 (stereo not shown) [Example 3.30, ethyl 2-[4-(3-methyl-5-{[4-(trifluoromethyl)-pyrimidin-2-yl]amino}phenyl)-1H-pyrazol-1-yl]propanoate] was tested, and the IC50 was ≤ 100 nM.

Cc1cc(Nc2nccc(C(F)F)n2)cc(-c2cnn(Cc3ccc(=O)[nH]c3)c2)c1 [Example 3.95, 5-{[4-(3-{[4-(difluoromethyl)pyrimidin-2-yl]amino}-5-methylphenyl)-1H-pyrazol-1-yl]methyl}pyridin-2(1H)-one] was tested, and the IC50 was ≤ 100 nM.

Cc1cc(Nc2nccc(C(F)F)n2)cc(-c2cnn(CC(C)(O)CO)c2)c1 (single isomer, unassigned) [Example 25.5, 3-[4-(3-{[4-(difluoromethyl)pyrimidin-2-yl]amino}-5-methylphenyl)-1H-pyrazol-1-yl]-2-methylpropane-1,2-diol] was tested, and the IC50 was ≤ 100 nM.

For OC1(Cn2cc(-c3cccc(Nc4nccc(C(F)F)n4)c3)cn2)CCC1 [Example 29.4, 1-{[4-(3-{[4-(difluoromethyl)pyrimidin-2-yl]amino}phenyl)-1H-pyrazol-1-yl]methyl}cyclobutanol], the IC50 was ≤ 100 nM.

For Cc1cc(Nc2nccc(C(F)(F)F)n2)cc(-c2cnn(CC3CC3)c2)c1 [Example 3.21, N-{3-[1-(cyclopropylmethyl)-1H-pyrazol-4-yl]-5-methylphenyl}-4-(trifluoromethyl)pyrimidin-2-amine], the IC50 was ≤ 100 nM.

For Cc1cc(Nc2nccc(C(F)F)n2)cc(-c2cnn(CC(O)CF)c2)c1 (stereo not shown) [Example 5.19, 1-[4-(3-{[4-(difluoromethyl)pyrimidin-2-yl]amino}-5-methylphenyl)-1H-pyrazol-1-yl]-3-fluoropropan-2-ol], the IC50 was ≤ 100 nM.

In the case of Cc1cc(Nc2nccc(C(F)(F)F)n2)cc(-c2cc(C(F)(F)F)nn2C)c1 [Example 1.10, N-{3-methyl-5-[1-methyl-3-(trifluoromethyl)-1H-pyrazol-5-yl]phenyl}-4-(trifluoromethyl)pyrimidin-2-amine], the IC50 is reported as 1000 to 10000 nM.

With Cc1cc(Nc2nccc(C(F)(F)F)n2)cc(-c2cnn(CC3(O)CCCOC3)c2)c1 (stereo not shown) [Example 12.11, 3-{[4-(3-methyl-5-{[4-(trifluoromethyl)pyrimidin-2-yl]amino}phenyl)-1H-pyrazol-1-yl]methyl}-tetrahydro-2H-pyran-3-ol] the IC50 was ≤ 100 nM.

With O=C1NCC(Cn2cc(-c3cccc(Nc4cc(C(F)F)ccn4)n3)cn2)O1 (stereo not shown) [Example 3.82, 5-{[4-(6-{[4-(difluoromethyl)pyridin-2-yl]amino}pyridin-2-yl)-1H-pyrazol-1-yl]methyl}-1,3-oxazolidin-2-one] the IC50 was ≤ 100 nM.

“4-{1-[4-(4-methyl-6-{[4-(trifluoromethyl)pyridin-2-yl]amino}pyridin-2-yl)-1H-pyrazol-1-yl]ethyl}pyrrolidin-2-one [Example 1.32]” was tested, and the IC50 was ≤ 100 nM.

With Cc1cc(Nc2nccc(C(F)F)n2)cc(-c2cnn(CCNC(=O)NCC3CCOCC3)c2)c1 [Example 27.17, 1-{2-[4-(3-{[4-(difluoromethyl)pyrimidin-2-yl]amino}-5-methylphenyl)-1H-pyrazol-1-yl]ethyl}-3-(tetrahydro-2H-pyran-4-ylmethyl)urea] the IC50 was ≤ 100 nM.
